This is an account of results in ChEMBL document CHEMBL1201862, “PubChem BioAssay data set” (2004).

The source made the active and inactive calls.

What is called AC50 is the concentration at which the activity in the assay is half-maximal. In general, CC50 refers to the concentration that lowers cell viability or growth by half. Usually IC50 stands for the midpoint of a concentration-inhibition curve.

Series [1] is described as follows: A549 cell cytotoxicity, dose response, cytotoxicity control, plate reader, cherry-pick, antagonist series (AID 743412). In kind it is functional, cell-based.
A short description of series [2]: HeLa cell cytotoxicity, dose response, cytotoxicity control for MgcRacGAP inhibitor project (AID 624300). Format: functional.
Series [3] deals with T1, Rac GTPase-activating protein 1 (Homo sapiens, UniProt Q9H0H5).
T1 sequence (Q9H0H5 whole entry): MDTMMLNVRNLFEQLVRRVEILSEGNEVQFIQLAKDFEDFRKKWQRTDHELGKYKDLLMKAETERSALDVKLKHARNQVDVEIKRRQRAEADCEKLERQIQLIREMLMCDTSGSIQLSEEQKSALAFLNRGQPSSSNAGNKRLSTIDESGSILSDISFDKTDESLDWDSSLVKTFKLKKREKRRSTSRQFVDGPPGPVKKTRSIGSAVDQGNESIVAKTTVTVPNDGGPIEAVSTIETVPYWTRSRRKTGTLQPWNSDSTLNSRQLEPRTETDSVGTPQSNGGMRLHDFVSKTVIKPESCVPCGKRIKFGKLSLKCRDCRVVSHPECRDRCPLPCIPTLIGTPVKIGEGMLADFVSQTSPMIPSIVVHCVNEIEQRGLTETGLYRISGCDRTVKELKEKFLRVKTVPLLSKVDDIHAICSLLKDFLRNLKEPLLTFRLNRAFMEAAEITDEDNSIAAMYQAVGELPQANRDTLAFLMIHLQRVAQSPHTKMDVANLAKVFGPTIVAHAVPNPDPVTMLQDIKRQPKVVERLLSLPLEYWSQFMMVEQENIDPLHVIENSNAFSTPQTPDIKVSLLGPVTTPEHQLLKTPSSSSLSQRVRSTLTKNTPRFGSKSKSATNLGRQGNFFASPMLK
The experiment in a line: MgcRacGAP GTPase-activating activity inhibitors, confirmation, biochemical, ADP Hunter fluorescence, primary and confirmatory (AID 624330). Format: functional.

Series [4] has as its system HEK293. In words: inhibitors of LMP1-driven NF-kB reporter, dose response, cell-based, HEK293, luciferase, cherry-pick (AID 588343). Conditions: Homo sapiens. In kind it is functional.
Series [5] deals with T2, Cytochrome P450 1A2 (Homo sapiens, UniProt P05177).
T2 sequence (P05177 whole entry): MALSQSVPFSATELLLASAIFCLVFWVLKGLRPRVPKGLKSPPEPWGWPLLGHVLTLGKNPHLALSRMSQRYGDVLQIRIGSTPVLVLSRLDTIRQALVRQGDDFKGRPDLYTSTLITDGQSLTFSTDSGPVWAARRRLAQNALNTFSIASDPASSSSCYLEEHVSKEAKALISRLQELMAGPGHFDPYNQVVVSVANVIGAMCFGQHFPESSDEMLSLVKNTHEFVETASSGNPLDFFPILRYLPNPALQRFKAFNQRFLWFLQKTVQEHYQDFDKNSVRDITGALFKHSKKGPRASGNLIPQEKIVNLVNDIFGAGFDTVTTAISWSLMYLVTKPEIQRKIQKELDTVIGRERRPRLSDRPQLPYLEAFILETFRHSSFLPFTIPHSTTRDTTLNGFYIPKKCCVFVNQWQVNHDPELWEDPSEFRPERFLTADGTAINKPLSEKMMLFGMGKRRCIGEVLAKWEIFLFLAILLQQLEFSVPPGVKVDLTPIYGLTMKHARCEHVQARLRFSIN

Series [6] addresses Cytochrome P450 2C9 (Homo sapiens, UniProt P11712).
The target in series [7] is Cytochrome P450 2C19 (Homo sapiens, UniProt P33261). In words: Cytochrome panel assay with activity outcomes. Panel member name: p450-cyp2c19 Compounds with AC50 equal or less than 10 uM are considered active. Format: functional. The following applies: read-out: AC50.
Series [8] addresses Glucose-6-phosphate 1-dehydrogenase (Homo sapiens, UniProt P11413). The experiment in a line: human G6PD enzyme inhibitors, dose response, selectivity assay for P. falciparum G6PD inhibitor project, biochemical, fluorescence (AID 504792). In kind it is functional.
Series [9] addresses T3, Leucine aminopeptidase (Plasmodium falciparum 3D7, UniProt Q8IL11).
T3 sequence (Q8IL11 whole entry): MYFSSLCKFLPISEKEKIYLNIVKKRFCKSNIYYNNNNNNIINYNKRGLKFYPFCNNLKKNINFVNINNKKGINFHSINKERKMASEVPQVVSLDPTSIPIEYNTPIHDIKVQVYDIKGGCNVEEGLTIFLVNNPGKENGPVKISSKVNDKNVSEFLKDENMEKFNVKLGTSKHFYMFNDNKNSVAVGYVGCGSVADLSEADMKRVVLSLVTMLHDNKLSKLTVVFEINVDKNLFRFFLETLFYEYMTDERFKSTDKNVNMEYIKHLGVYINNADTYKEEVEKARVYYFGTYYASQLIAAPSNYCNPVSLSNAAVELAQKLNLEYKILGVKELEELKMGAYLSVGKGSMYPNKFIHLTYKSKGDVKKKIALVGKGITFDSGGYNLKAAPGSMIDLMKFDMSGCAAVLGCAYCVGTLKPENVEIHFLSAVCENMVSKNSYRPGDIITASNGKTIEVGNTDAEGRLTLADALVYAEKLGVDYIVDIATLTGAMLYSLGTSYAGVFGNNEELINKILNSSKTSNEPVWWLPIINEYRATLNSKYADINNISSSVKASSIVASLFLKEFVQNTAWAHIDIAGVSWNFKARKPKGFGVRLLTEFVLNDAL
In words: P. falciparum M17LAP inhibitors, primary screen, biochemical, fluorogenic H-Leu-NHMec substrate, 1536-well (AID 1619). In kind it is functional.

Series [10] has as its target T4, Histone-lysine N-methyltransferase NSD2 (Homo sapiens, UniProt O96028).
T4 sequence (O96028 whole entry): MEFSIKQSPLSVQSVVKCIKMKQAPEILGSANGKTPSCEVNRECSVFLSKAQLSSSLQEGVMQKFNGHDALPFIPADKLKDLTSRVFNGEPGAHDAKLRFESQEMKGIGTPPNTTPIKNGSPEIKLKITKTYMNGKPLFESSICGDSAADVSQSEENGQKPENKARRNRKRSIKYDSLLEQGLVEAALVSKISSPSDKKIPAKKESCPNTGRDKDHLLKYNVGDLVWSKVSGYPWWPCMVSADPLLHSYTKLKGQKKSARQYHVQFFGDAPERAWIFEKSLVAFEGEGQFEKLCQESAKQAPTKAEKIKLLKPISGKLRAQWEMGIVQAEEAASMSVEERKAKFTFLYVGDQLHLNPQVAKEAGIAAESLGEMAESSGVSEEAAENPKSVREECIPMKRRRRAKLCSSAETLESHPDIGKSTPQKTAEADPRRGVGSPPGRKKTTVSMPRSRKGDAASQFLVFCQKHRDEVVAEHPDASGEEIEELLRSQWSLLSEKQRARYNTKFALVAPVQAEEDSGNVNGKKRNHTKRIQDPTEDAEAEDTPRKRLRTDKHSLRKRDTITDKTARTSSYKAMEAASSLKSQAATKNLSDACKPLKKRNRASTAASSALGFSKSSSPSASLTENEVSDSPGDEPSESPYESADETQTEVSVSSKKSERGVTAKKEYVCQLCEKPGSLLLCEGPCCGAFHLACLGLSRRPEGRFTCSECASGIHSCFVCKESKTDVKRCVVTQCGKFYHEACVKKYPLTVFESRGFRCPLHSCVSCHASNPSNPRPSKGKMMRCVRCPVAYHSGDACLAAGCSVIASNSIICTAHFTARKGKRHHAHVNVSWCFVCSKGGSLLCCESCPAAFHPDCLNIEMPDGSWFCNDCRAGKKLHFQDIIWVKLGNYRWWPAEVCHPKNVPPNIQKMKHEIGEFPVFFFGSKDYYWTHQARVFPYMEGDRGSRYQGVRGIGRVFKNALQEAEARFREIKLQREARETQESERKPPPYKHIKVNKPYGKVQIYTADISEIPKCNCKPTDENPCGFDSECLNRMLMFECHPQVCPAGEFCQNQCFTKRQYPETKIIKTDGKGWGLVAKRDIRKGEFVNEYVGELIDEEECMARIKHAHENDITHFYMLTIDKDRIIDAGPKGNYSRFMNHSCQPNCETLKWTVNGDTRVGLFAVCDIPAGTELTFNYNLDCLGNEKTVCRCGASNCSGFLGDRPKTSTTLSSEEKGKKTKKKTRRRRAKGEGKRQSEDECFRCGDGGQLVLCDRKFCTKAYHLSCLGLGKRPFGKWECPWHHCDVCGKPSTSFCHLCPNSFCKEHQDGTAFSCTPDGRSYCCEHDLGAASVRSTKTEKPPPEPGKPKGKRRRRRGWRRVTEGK
In kind it is biochemical.

Series [11] in a line: P. falciparum Dd2 growth inhibitors, dose response, SYBR Green, dry powder samples (AID 1159566).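 Note: potency for growth inhibition with lower SYBR green DNA signal.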 In kind it is functional, cell-based.
Series [12] can be described thus: P. falciparum ATP4 D1247Y mutant growth inhibitors, dose response, NITD609-resistant line, SYBR Green, dry powder (AID 1159571).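 Note: parasites synchronized at ring stage by sorbitol before testing.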 In kind it is functional, cell-based.
A short description of series [13]: P. falciparum Dd2 growth inhibitors, dose response, SYBR Green, cherry-picked samples (AID 1159567). Format: functional, cell-based.
Series [14] can be described thus: P. falciparum 3D7-ScDHODH growth inhibitors, dose response, SYBR Green, dry powder samples (AID 1159570).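 Note: parasite growth measured after 72 hours of compound exposure.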 In kind it is functional, cell-based.
The target in series [15] is Cytochrome P450 3A4 (Homo sapiens, UniProt P08684).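 Note: CYP3A4 tested as one member of a cytochrome P450 panel screen.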
Cytochrome P450 3A4, sequence (P08684 whole entry): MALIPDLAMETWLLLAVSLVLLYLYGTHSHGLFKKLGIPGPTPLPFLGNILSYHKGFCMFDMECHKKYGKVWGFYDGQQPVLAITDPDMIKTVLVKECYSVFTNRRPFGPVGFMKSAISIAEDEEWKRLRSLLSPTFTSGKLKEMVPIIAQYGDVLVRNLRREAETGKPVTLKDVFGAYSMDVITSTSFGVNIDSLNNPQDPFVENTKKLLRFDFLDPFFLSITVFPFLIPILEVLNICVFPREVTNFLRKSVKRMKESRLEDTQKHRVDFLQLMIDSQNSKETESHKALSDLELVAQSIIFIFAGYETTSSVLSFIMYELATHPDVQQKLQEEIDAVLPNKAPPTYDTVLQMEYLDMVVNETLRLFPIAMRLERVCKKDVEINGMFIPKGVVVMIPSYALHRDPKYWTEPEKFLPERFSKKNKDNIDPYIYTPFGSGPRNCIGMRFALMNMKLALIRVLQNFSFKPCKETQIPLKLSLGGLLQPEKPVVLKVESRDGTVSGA

Glucose-6-phosphate 1-dehydrogenase, sequence (P11413 whole entry): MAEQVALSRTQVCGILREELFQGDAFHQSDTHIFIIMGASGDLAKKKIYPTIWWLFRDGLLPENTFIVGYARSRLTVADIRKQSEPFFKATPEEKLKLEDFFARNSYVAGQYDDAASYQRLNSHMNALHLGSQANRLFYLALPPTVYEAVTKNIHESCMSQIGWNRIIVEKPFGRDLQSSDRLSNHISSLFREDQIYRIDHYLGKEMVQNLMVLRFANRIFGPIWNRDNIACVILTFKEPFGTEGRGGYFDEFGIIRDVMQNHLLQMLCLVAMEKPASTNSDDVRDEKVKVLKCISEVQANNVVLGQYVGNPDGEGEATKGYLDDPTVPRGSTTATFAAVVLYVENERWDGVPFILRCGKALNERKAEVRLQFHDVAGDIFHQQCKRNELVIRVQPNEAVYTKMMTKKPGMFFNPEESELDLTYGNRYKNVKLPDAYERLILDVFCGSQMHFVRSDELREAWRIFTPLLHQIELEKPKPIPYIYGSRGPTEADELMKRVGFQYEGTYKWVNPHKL
Cytochrome P450 2C9, sequence (P11712 whole entry): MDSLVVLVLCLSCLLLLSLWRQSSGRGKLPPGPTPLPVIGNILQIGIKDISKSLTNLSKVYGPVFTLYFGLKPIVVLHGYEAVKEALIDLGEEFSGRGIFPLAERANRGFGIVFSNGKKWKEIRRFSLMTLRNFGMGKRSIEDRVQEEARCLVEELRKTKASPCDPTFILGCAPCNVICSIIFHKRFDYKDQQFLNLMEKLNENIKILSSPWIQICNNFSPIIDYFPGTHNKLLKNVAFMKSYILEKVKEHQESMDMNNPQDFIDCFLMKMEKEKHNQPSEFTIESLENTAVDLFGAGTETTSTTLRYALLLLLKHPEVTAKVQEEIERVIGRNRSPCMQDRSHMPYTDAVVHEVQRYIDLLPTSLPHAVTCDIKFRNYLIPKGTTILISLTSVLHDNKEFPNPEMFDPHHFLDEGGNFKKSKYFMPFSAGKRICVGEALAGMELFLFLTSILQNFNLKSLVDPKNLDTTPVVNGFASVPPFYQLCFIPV
Cytochrome P450 2C19, sequence (P33261 whole entry): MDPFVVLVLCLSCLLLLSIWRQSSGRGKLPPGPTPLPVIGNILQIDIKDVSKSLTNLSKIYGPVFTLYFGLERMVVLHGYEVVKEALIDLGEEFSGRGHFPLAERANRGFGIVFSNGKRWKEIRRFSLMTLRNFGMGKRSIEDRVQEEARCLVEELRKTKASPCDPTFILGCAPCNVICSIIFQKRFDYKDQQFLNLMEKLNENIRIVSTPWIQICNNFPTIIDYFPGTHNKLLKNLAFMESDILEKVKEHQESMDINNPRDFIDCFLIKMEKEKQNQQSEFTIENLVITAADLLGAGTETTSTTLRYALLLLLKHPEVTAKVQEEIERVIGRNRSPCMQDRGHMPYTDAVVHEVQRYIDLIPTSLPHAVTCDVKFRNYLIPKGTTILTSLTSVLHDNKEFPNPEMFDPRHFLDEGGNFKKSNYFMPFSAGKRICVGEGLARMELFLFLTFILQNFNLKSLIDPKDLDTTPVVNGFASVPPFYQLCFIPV

Regarding `Cn1nnnc1SCC(=O)N1CCN(C(=O)c2ccco2)CC1`, the AC50 in [1] was > 52 µM (inactive).

Take `COc1cc(CNCCc2ccc3c(c2)OCO3)cc(OC)c1OC`: the CC50 in series [2] was 100 µM (active). Also, the IC50 in [3] is 127 µM (active).

As to `COc1ccc(C(c2c(C)n(C)n(-c3ccccc3)c2=O)c2c(C)n(C)n(-c3ccccc3)c2=O)c(OC)c1OC`, in series [4], the AC50 was 344 µM (active).

`O=C(N/C(=C/c1ccco1)C(=O)N1CCCCCC1)c1cccs1`: the results for the AC50 in series [5], in series [6] and in [7] were 17.8 µM (inconclusive), “inconclusive” and 3.98 µM (inconclusive), respectively.

As to `O=C(CSc1nc2cc(Cl)ccc2s1)c1ccco1`, the IC50 in series [8] is > 80 µM (inactive).

Regarding `O=C1C(C2=NC(C(=O)O)C3C(=O)N(c4ccc(Cl)cc4)C(=O)C23)=C(O)c2ccccc21` (stereo not drawn), the IC50 in series [9] was 71.6 µM (active).

For the compound `Cc1ccc(C(=O)Nc2nnc(S(=O)(=O)N3CCC(C)CC3)s2)cc1`, the IC50 in series [8] is > 80 µM (inactive).

Take `Cc1ccc(C(=O)CSc2nnc[nH]2)cc1`: the IC50 in [9] is 50.5 µM (active).

In the case of `Cc1cc(SCC(=O)c2ccc(O)c(O)c2)nc2ccccc12`, the AC50 in series [10] is 6.7 µM (active). In series [2], the CC50 was 100 µM (active). For the same compound, the IC50 in series [3] is 58.2 µM (active).

For `Cc1[nH]c2ccccc2c1/C=N/Nc1nncn1N`, the IC50 in series [8] is 44.1 µM (inactive); in series [3], 63.7 µM (active).

`O=C(Nc1ccccc1C(=O)N/N=C/c1ccco1)c1ccccc1Cl`: the IC50 in [8] was > 80 µM (inactive).

With `COc1cccc(CN2CC3(CCN(Cc4ccccn4)CC3)c3c([nH]c4cc(OC)ccc34)[C@@H]2CO)c1`, the AC50 in series [11] was 1.79 µM (active); in series [12], 2.04 µM (active); in series [13], 1.96 µM (active); in series [14], 1.71 µM (active).

Consider `Oc1ccc2oc3c(c2c1)CCCC3`, for which the AC50 entry in [6] was “inconclusive”; in [15], 22.4 µM (inconclusive).
